Measurements from patent US20200138764A1, “METHODS AND DEVICES FOR ACTIVATING ADIPOSE TISSUE” (The Procter & Gamble Company, priority 2018, published 2020).

Biological target: human TRPM8
Test: TRPM8 Protocol-FLIPR Assay (intracellular Ca2+)
Type: cell-based
Details: HEK-293 cells stably transfected with human TRPM8, Fluo-4 AM, relative to benchmark agonist WS-5
Experimental: To determine whether TRPM8 is activated, the intracellular calcium ion (Ca^2+) level was measured from transfected cells with the TRPM8 receptor sequence (SEQ ID NO: 1). HEK-293 (human embryonic kidney) cells stably transfected with human TRPM8 were grown in 15 mL growth medium (high glucose DMEM (Dulbecco's Modification of Eagle's Medium) supplemented with 10% FBS (fetal bovine serum), 100 μg/mL penicillin/streptomycin, 5 μg/mL blasticindin, and 100 μg/mL zeocin) in a 75 cm^2 flask for 3 days at 37° C. in a mammalian cell culture incubator (Forma Scientific Model 3110, Marietta, Ohio) set at 5% CO2. Cells were detached with addition of 2 mL of trypsin-EDTA buffer (GIBCO® 25200, Invitrogen, Grand Island, N.Y.) for about 2-3 min. Trypsin was inactivated by addition of 8 mL growth medium. Cells were transferred to a 50 mL tube and centrifuged at 850 rpm for 3 minutes to remove medium. After centrifugation, a pellet of cells was formed in the bottom of the tube separating them from the supernatant solution. The supernatant was discarded and the cell pellet was suspended in 1 mL of fresh growth medium to which 5 μL (12.5 μg) of Fluo-4 AM (Molecular Probes, Inc., Eugene, Oreg.) calcium indicator was added and incubated for 30 min with gentle shaking. Fluo-4 AM is a fluorescent dye used for quantifying cellular Ca^2+ concentrations in the 100 nM to 1 μM range. At the end of 30 minutes, 45 mL of assay buffer (1×HBSS (Hank's Balanced Salt Solution), 20 mM HEPES (4-(2-Hydroxyethyl)-1-piperazineethanesulfonic acid)) was added to wash cells and the resulting mixture was then centrifuged at 850 rpm for 3 minutes at 20° C. to remove excess buffer and Fluo-4 AM calcium indicator.
The pelleted cells were re-suspended in 10 mL assay buffer and 90 μL aliquots (˜50,000 cells) per well delivered to a 96-well assay plate containing 10 μL of test compounds (1 mM in assay buffer, final concentration 100 μM) or buffer control and incubated at room temperature for 30 minutes. After 30 minutes, a plate (Falcon 353219, Corning Corning N.Y.) was placed into a fluorometric imaging plate reader (FLIPR384 from Molecular Devices, Sunnyvale, Calif.) and basal fluorescence recorded (excitation wave length 488 nm and emission wave length 510 nm). Then 20 μL of 100 mM of TRPM8 agonist WS5 coolant in the assay buffer was added and fluorescence recorded. For determining the direct effect of test compounds on TRPM8, fluorescence was measured immediately after addition of each compound (TABLE 1). Additional discussion of the FLIPR method can be found in Smart et al., Characterization using FLIPR of human vanilloid VR1 receptor pharmacology, European Journal of Pharmacology 417, 51-58 (2001) and Liu et al., Development and validation of a platelet calcium flux assay using a fluorescent imaging plate reader, Analytical Biochemistry 357, 216-224 (2006).
The magnitude of the fluorescence of the active-treated cells was compared to the magnitude of the fluorescence from a benchmark agonist (WS-5), as described above. The percentage of fluorescence as a function of active dose was plotted and a sigmoidal curve was generated. Curve fitting from this dose-response curve yielded the value for TRPM8 IC50 in nM.
TRPM8 activation was determined by measuring intracellular calcium ion (Ca^2+) level from transfected cells with the TRPM8 receptor gene, as described in EXAMPLE 1, the results of which are shown in TABLE 1. IC50 values are provided in column 3 of TABLE 1, which measured the concentration of activating compound needed to reduce intracellular [Ca^2+] by 50%. […]

Compound	IC50
CC(C)[C@@H]1CC[C@@H](C)C[C@H]1C(=O)NC[C@@H](NC(=O)[C@H](C)N)c1ccccc1 [Formula III]	2 nM
CC1CCC(C(C)C)C(O)C1 (stereo not drawn) [Menthol]	7000 nM
CCOC(=O)CNC(=O)[C@@H]1C[C@H](C)CC[C@H]1C(C)C [WS-5]	2000 nM
